Results as given in patent publication US8097650B2, “Method of treating a condition associated with phosphorylation of TASK-1” (The Trustees of Columbia University In The City of New York, priority 2005, dated 2012).

Assays:
murine TASK-1 = assay: TASK-1 current expressed in CHO cells (whole-cell ramp clamp); type: cell-based, mouse
In short: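 CHO cells transiently expressing murine TASK-1, with GFP or CD8 used to identify transfected cells, were studied 48 h after transfection. Whole-cell ramp-clamp recording at room temperature in Tyrode's pH 7.4 with a K-aspartate pipette solution. Records were corrected for a −9.8 mV junction potential and given as mean±SEM.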

mTRAAK = molecular target: T1, mTRAAK (Mus musculus, UniProt O88454); assay: mTRAAK current in HEK cells (ramp clamp); type: cell-based; details: read-out: EC50 for activation of TRAAK current
T1 construct: expressed in transfected cells; host or cells: HEK cells
T1 sequence (O88454 1-398): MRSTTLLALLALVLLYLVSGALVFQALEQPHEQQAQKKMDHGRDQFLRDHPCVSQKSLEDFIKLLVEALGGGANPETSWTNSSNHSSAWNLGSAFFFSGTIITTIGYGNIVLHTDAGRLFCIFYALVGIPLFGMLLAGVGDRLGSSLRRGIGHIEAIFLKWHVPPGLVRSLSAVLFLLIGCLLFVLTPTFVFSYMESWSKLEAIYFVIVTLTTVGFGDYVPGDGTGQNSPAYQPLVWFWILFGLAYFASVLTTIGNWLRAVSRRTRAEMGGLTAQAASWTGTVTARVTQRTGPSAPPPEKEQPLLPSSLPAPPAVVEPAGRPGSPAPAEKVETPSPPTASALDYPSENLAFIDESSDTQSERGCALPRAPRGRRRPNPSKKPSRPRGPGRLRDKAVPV
Experimental: FIG. 21. CHO cells (hTREK-1, hTASK-1) or HEK cells (mTRAAK) were co-transfected with plasmids encoding one of the two pore domain channels and GFP using the GeneJammer reagent. After 48-60 h, the expressed current was measured using a ramp protocol while the cells were perfused with regular Tyrode's solution containing varying concentrations of ONO-RS-082 (range of concentration from 10 nM to 500 μM as noted in FIG. 21) until a steady state was reached. Each cell was exposed to only one concentration of drug. Panel A: TREK-1 current was determined using a ramp clamp, and the percent increase induced by ONO-RS-082 was measured at the most positive imposed voltage (n≧5). The EC50 for activation was around 3 μM and the basal and ONO-activated current densities are noted. Panel B: TASK-1 current was determined using a ramp clamp in Tyrode's solution at pH=8 and the percent increase induced by ONO-RS-082 was measured at the most positive imposed voltage (n≧4). The EC50 was around 8 μM and the basal and ONO-activated current densities are noted. Panel C: TRAAK current was determined using a ramp clamp, and the percent increase induced by ONO-RS-082 was measured at the most positive imposed voltage (n≧4). The EC50 was around 0.9 μM and the basal and ONO-activated current densities are noted.

Compound | TASK-1 current density in the presence of drug (murine TASK-1; +30 mV, C-PAF 185 nM or PMA 100 nM, no peptide) | inhibition of TASK-1 current (murine TASK-1; +30 mV, PMA 100 nM (n=17), C-PAF 185 nM (n=20)) | time for decrease in TASK-1 current to reach steady state (murine TASK-1; C-PAF 185 nM) | decrease in the mean current density (murine TASK-1; C-PAF 185 nM, +30 mV, n=9) | effect on expressed TASK-1 current (murine TASK-1; C-PAF 185 nM, Example 1) | TASK-1 current density after drug (murine TASK-1; PKCε-inhibitor peptide 100 nM in pipette, C-PAF 185 nM or PMA 100 nM) | I-V relation after washout, deviation from control value (murine TASK-1; after washout of C-PAF 185 nM) | C-PAF inhibition of TASK-1 current (murine TASK-1; modified Tyrode's, elevated K+) | C-PAF-induced inhibition of TASK-1 (murine TASK-1; scrambled peptide in pipette) | EC50 (mTRAAK)
CCCCCCCCCCCCCCCCOC[C@H](COP(=O)([O-])OCC[N+](C)(C)C)OC(=O)NC [C-PAF, carbamyl-platelet-activating factor] | 60.2±14.3 pA/pF | 12.1±1.0% | ≤ 2 min | 12% | reduced | 25.4±12.4 pA/pF | ≤ 5% | 10.2±1.8% | 8.4±1.5% | 
CCCCCc1ccc(C=CC(=O)Nc2cc(Cl)ccc2C(=O)O)cc1 [ONO-RS-082] |  |  |  |  |  |  |  |  |  | ~900 nM
